US5998366A, “Method for ameliorating glutamic acid decarboxylase associated autoimmune disorders” (The Regents of the University of California, priority 1997, dated 1999)

Experiments:
spleen cells of NOD mice = assay: Proliferative recall response of spleen cells to β-cell antigens, by age; assay type: cell-based
Protocol: NOD (Taconic farms) and BALB/c mice (Jackson Laboratories) were kept under specific pathogen free conditions. The mice were sacrificed at the ages indicated and the spleen cells were tested directly ex vivo for their proliferative recall response to antigen. Single cell suspensions of spleen cells were plated at 1×10^6 cells per well in 96 well microtiter plates in 200 μl serum free HL-1 medium (Ventrex) that was supplemented with 2 mM glutamine with or without 10 μg/ml antigen (or 7 μM peptide) in triplicate cultures. During the last 16 h of the 72 h culture period, 1 μCi[^3 H]-thymidine was added per well. Incorporation of label was measured by liquid scintillation counting.
Both human GAD65 (Bu, et al., Proc. Natl. Acad. Sci., 89:2115-2119, 1992) and E. coli β-gal (control) were purified from recombinant bacteria on the basis of a hexahistidine tag which allows their rapid affinity purification by metal affinity chromatography (Hochuli, et al., Bio/Technology, 6:1321-1325, 1988). Bovine CPH was the generous gift of L. Fricker (Albert Einstein Col. Med.) and human insulin was purchased from Eli Lilly.

female NOD mice [1] = assay: Insulitis score after tolerance induction; assay type: in vivo; conditions: examined at 12 weeks
Protocol: (§1) 1. In these experiments female NOD mice were intravenously injected at 3 weeks of age with 50 μg GAD, μ-galactosidase, mycobacterial hsp65 (m-hsp) or 0.1 μg of the immunodominant hsp peptide (hsp-p), in PBS. At 12 weeks of age, mice were examined for insulitis and autoantigen reactive T-cells. At this age both indications are established in untreated NOD mice. Pancreatic tissue sections were stained by immunoperoxidase techniques for insulin and were counterstained with hematoxylin. Insulitis was scored in a blinded manner by examining 54 to 87 islets on 5 interrupted tissue sections from each pancreas. Proliferative splenic T-cell responses induced by various antigens were performed as described above in Example 4. Data in Table 8 are expressed as the average [^3 H]-thymidine label (cpm) incorporated in triplicate cultures.
2. In a second set of experiments neonatal female NOD mice were injected intraperitoneally IFA with peptide 11, a mixture of peptides 34 and 35 plus IFA, or with IFA alone and at 12 weeks of age the mice were examined for insulitis and autoantigen reactive T-cells as in Example 6.1. Proliferative splenic T-cell responses induced by the various antigens were performed as in Example 4, and data in Table 8B are expressed as the average [^3 H]-thymidine label (cpm) incorporated in triplicate cultures.
3. In a third set of experiments female NOD mice were intravenously injected at three weeks of age with peptide 11 (control), a mixture of peptides 34 and 35 plus IFA, or with HEL peptides and at 12 weeks of age the mice were examined for insulitis and autoantigen reactive T-cells as in Example 6.1. Proliferative splenic T-cell responses induced by the various antigens were performed as in Example 4, and data in Table 8C are expressed as the average [^3 H]-thymidine label (cpm) incorporated in triplicate cultures.

female NOD mice [2] = assay: Long-term diabetes incidence, insulitis and βCA reactive T cells after GAD tolerization; assay type: in vivo
Protocol: as §1
Five GAD treated mice were sacrificed at 30 weeks of age.

[3] = system: spleen cells of 6-9 week old NOD mice; assay: IFNγ ELISA and ELISA spot of spleen cells challenged with antigen; assay type: cell-based
Protocol: In one series of experiments γ interferon (IFNγ) was measured by ELISA in culture supernatants (CSN) of spleen cells of 6-9 week old mice after challenge with GAD or control antigens HEL and MBP. Additionally, the frequency of antigen specific, IFNγ-producing cells was determined by an ELISA spot technique (T. Taguchi, et al., J. Immunol., 145:68-77, 1990). Frequency of antigen-induced, spot forming cells (SFC) among 10^3 spleen cells is represented in FIG. 9(a). Values are the mean+SEM from 5 individual female NOD mice, each tested in triplicate cultures with or without antigen. Results from a single experiment are shown. These are representative of 3 separate experiments.
In performing these experiments, freshly isolated spleen cells were cultured with or without antigen as described in Example 4. CSN were taken after 48 h and the concentration of IFNγ was determined by ELISA (Macy, et al., FASEB J., 3003-3009, 1988). IFNγ specific monoclonal antibody (mAb) R4-6A2 (Pharmingen) was used as the capturing reagent and biotinylated mAb XMG 1.2 (Pharmingen, also specific for IFNγ) was used in conjunction with streptavidin-alkaline phosphatase (Zymed) and […] for detection of bound lymphokine. […] Spots were counted visually and the frequency of antigen specific cells was determined from the difference between the number of spots seen with and without antigen.

[4] = five treated mice sacrificed at 30 weeks

GAD: human GAD65 purified from recombinant bacteria on the basis of a hexahistidine tag
T cell proliferation in non-diseased spleen cells (spleen cells of NOD mice; <4 or >16 week old NOD or control BALB/c or (NOD/BALB/c)F1 spleen cells): did not induce T cell proliferation | age at which the proliferative T-cell response to the antigen appeared (spleen cells of NOD mice; female NOD mice, 10 μg/ml antigen or 7 μM peptide, 72 h culture (FIG. 8)): 4 weeks | Insulitis Score (female NOD mice [1]; Table 8A: i.v. injection at 3 weeks of age in PBS, scale 0-4, mean ± SE): 0.1 ± 0.1 | insulitis score of the completely tolerized mice (female NOD mice [1]; i.v. at 3 weeks): 0.0 | insulitis at 30 weeks of age (female NOD mice [2]; [4]): four mice were completely free of insulitis | βCA reactive T cells at 30 weeks of age (female NOD mice [2]; [4]): free of detectable βCA reactive T cells | glucose levels of treated mice (female NOD mice [2]; n=17, presently 37 weeks old): normal glucose levels | IFNγ in culture supernatants after antigen challenge ([3]; 48 h, ELISA): high concentrations of IFNγ | frequency of antigen-reactive (IFNγ spot forming) T-cells in the spleen ([3]; ELISA spot): 90-291 cells per 10^5 cells
